This experiment has as its target T1, mouse TRPM3α2 (mTRPM3) ion channel (Mus musculus, UniProt J9SQF3).
T1 construct: expressed in transfected cells; host or cells: flip-in HEK293
As to the kind of experiment: TRPM3 ion channel driven Ca2+ uptake, Fluo-4 AM assay, PS-stimulated (mTRPM3). Format: cell-based. Particulars: TRPM3 overexpressing flip-in HEK293 cells stimulated with Pregnenolone sulfate (PS) 50 μM, activity ranges A, B, C. The method, boiled down: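 Flp-In HEK293 cells overexpressing mTRPM3α2 were added, in Ca²⁺-free Krebs, to wells already holding compound and 50 μM pregnenolone sulfate in Ca²⁺-containing Krebs. Fluo-4 AM fluorescence (ex 485/em 535 nm) was read immediately. Percent inhibition was computed from RFU relative to PS/vehicle wells and a positive-control inhibitor.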

The structures appear in SMILES notation. A value given as a limit tells only on which side of the number the result lay.

T1 sequence (J9SQF3 1-1709 isoform J9SQF3-12): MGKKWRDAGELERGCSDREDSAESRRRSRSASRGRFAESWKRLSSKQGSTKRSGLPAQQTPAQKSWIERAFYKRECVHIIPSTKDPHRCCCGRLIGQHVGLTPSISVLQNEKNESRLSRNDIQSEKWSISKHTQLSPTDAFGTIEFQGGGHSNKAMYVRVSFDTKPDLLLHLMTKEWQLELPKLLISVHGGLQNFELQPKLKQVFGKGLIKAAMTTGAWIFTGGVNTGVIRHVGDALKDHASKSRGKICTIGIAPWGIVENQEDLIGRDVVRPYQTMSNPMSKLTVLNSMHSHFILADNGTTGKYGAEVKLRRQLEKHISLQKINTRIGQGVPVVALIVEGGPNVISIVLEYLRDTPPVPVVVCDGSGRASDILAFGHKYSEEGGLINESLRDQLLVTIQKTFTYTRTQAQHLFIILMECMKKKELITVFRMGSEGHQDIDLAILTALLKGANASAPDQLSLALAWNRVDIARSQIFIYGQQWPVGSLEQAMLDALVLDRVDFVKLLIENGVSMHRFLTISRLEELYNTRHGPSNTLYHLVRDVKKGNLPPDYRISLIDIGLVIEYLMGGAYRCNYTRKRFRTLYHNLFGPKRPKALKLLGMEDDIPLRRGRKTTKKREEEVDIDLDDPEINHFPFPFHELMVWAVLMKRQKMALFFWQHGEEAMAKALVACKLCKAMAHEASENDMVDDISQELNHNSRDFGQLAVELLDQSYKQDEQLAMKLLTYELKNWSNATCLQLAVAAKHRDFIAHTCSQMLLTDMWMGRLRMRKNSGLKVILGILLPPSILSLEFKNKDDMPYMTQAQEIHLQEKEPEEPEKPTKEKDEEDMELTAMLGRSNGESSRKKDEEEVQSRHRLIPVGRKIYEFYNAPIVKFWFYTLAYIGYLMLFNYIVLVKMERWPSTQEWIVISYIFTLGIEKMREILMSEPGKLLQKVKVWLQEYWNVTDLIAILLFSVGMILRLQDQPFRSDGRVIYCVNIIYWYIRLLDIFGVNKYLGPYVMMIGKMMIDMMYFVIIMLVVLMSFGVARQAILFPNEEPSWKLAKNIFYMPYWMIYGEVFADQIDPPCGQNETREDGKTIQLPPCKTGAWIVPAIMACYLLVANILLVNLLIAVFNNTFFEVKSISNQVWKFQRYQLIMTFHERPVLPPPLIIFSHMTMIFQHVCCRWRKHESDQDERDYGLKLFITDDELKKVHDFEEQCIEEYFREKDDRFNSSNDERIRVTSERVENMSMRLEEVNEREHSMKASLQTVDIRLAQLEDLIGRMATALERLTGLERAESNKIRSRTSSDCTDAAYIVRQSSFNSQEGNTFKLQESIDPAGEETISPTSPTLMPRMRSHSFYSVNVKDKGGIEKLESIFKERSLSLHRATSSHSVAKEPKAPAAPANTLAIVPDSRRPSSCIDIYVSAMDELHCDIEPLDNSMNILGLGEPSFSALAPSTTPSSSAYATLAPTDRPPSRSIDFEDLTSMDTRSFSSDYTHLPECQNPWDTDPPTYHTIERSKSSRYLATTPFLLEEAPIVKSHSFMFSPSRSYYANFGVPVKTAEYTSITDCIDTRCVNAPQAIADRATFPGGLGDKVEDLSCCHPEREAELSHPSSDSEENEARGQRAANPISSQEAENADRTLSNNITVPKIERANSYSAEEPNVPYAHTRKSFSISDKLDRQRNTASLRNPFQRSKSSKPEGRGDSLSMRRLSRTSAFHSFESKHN

Take `Cc1oc2ccc(OCc3ccccc3F)cc2c1C(=O)NC1(CO)CCOC1` (single isomer, unassigned) [Cpd 327-En 2, 5-((2-fluorobenzyl)oxy)-N-(3-(hydroxymethyl)tetrahydrofuran-3-yl)-2-methylbenzofuran-3-carboxamide]: the IC50 (as a rule, the concentration needed to halve the response being measured) was below 1 µM.
Turning to `Cc1oc2ccc(OCc3ccccc3F)cc2c1C(=O)NC1(CO)CCC1` [Cpd 324, 5-((2-fluorobenzyl)oxy)-N-(1-(hydroxymethyl)cyclobutyl)-2-methylbenzofuran-3-carboxamide], the concentration for half-maximal inhibition (IC50) is below 1 µM.
Next, `Cc1oc2ccc(OCc3ccccc3S(C)(=O)=O)cc2c1C(=O)NC1(CO)CCOCC1` [Cpd 332, N-(4-(hydroxymethyl)tetrahydro-2H-pyran-4-yl)-2-methyl-5-((2-(methylsulfonyl)benzyl)oxy)benzofuran-3-carboxamide]: 1 to 20 µM.
With `Cc1oc2ccc(OC(CO)c3ccccc3)cc2c1C(=O)NC1(CO)CCOCC1` (single isomer, unassigned) [Cpd 317-En 1, 5-(2-hydroxy-1-phenylethoxy)-N-(4-(hydroxymethyl)tetrahydro-2H-pyran-4-yl)-2-methylbenzofuran-3-carboxamide] the figure was below 1 µM.
With `CC(=O)N1CC[C@H](NC(=O)c2c(C)oc3ccc(OCc4ccccc4)cc23)C1` [Cpd 145, (S)—N-(1-acetylpyrrolidin-3-yl)-5-(benzyloxy)-2-methylbenzofuran-3-carboxamide] the figure was 1 to 20 µM; with `COc1ccccc1COc1ccc2oc(C)c(C(=O)N[C@@H](CO)C(N)=O)c2c1` [Cpd 339, (S)—N-(1-Amino-3-hydroxy-1-oxopropan-2-yl)-5-((2-methoxybenzyl)oxy)-2-methylbenzofuran-3-carboxamide], below 1 µM; with `Cc1oc2ccc(OCc3ccccc3F)cc2c1C(=O)NS(=O)(=O)C1CC1` [Cpd 175, N-(cyclopropylsulfonyl)-5-((2-fluorobenzyl)oxy)-2-methylbenzofuran-3-carboxamide], below 1 µM.
Take `Cc1oc2ccc(OCc3ccccc3)cc2c1C(=O)NCc1ccccn1` [Cpd 099, 5-(benzyloxy)-2-methyl-N-(pyridin-2-ylmethyl)benzofuran-3-carboxamide]: the half-maximal inhibitory concentration (IC50) fell in the range of 1 to 20 µM.
In turn, `Cc1oc2ccc(OCc3ccccc3)cc2c1C(=O)NCC1CCCO1` (centres unmarked) [Cpd 087, 5-(benzyloxy)-2-methyl-N-((tetrahydrofuran-2-yl)methyl)benzofuran-3-carboxamide] gave a half-inhibitory concentration (IC50) below 1 µM.
With `Cc1oc2c(C)cc(OCc3ccccc3)cc2c1C(=O)NC1CNCC1(F)F` (single isomer, unassigned) [Cpd 307-En 1, 5-(benzyloxy)-N-(4,4-difluoropyrrolidin-3-yl)-2,7-dimethylbenzofuran-3-carboxamide] the figure was 1 to 20 µM; with `Cc1oc2ccc(OCc3ccccc3C(F)(F)F)cc2c1C(=O)O` [Cpd 024, 2-methyl-5-((2-(trifluoromethyl)benzyl)oxy)benzofuran-3-carboxylic acid], below 1 µM.
`Cc1oc2ccc(OCc3ccccc3)cc2c1C(=O)NCC(O)CO` (centres unmarked) [Cpd 057, 5-(benzyloxy)-N-(2,3-dihydroxypropyl)-2-methylbenzofuran-3-carboxamide]: the half-maximal inhibitory concentration (IC50) is below 1 µM.
With `Cc1oc2ccc(OCc3ccccc3)cc2c1C(=O)NC1CCN(C2COC2)CC1` [Cpd 208, 5-(benzyloxy)-2-methyl-N-(1-(oxetan-3-yl)piperidin-4-yl)benzofuran-3-carboxamide] the figure was 1 to 20 µM.
Next, `Cc1oc2ccc(OCc3ccccc3)cc2c1C(=O)Nc1ccn(C)n1` [Cpd 064, 5-(benzyloxy)-2-methyl-N-(1-methyl-1H-pyrazol-3-yl)benzofuran-3-carboxamide]: below 1 µM; `Cc1oc2ccc(OCc3ccc(C(F)(F)F)cc3)cc2c1C(=O)NC1CCN(C)CC1` [Cpd 234, 2-methyl-N-(1-methylpiperidin-4-yl)-5-((4-(trifluoromethyl)benzyl)oxy)benzofuran-3-carboxamide]: 1 to 20 µM; `Cc1oc2ccc(OCc3cccc(F)c3F)cc2c1C(=O)NC1(CO)CCOCC1` [Cpd 217, 5-((2,3-difluorobenzyl)oxy)-N-(4-(hydroxymethyl)tetrahydro-2H-pyran-4-yl)-2-methylbenzo-furan-3-carboxamide]: below 1 µM.
With `Cc1oc2ccc(OCc3ccccc3)cc2c1C(=O)NC1CC(CO)(CO)C1` [Cpd 166, 5-(benzyloxy)-N-(3,3-bis(hydroxymethyl)cyclobutyl)-2-methylbenzofuran-3-carboxamide] the figure was below 1 µM.
With `COCCCN1CCC(NC(=O)c2c(C)oc3ccc(OCc4ccccc4)cc23)CC1` [Cpd 229, 5-(benzyloxy)-N-(1-(3-methoxypropyl)piperidin-4-yl)-2-methylbenzofuran-3-carboxamide], the concentration for half-maximal inhibition (IC50) is 1 to 20 µM.
Next, `Cc1oc2ccc(OC(C)c3ccccc3)cc2c1C(=O)N[C@@H](CO)C(N)=O` (single isomer, unassigned) [Cpd 336-Dia 1]: below 1 µM.
Regarding `Cc1oc2ccc(OCc3ccccc3)cc2c1C(=O)N[C@@H]1CCN(C(=O)OC(C)(C)C)[C@@H](C)C1` (racemic) [Cpd 251, tert-butyl trans-4-(5-(benzyloxy)-2-methylbenzofuran-3-carboxamido)-2-methylpiperidine-1-carboxylate], the IC50 was below 1 µM.
With `Cc1oc2ccc(OCc3ccccc3)cc2c1C(=O)NC1CCN(C)CC1` [Cpd 117, 5-(benzyloxy)-2-methyl-N-(1-methylpiperidin-4-yl)benzofuran-3-carboxamide] the figure was below 1 µM; with `Cc1oc2ccc(OCc3ccccc3)cc2c1C(=O)NC1CCN2CCCC12` (single isomer, unassigned) [Cpd 144-Dia 1, 5-(benzyloxy)-N-(hexahydro-1H-pyrrolizin-1-yl)-2-methylbenzofuran-3-carboxamide], below 1 µM.
In turn, `Cc1oc2ccc(OCc3ccccc3)cc2c1C(=O)NC1CCN(CCN(C)C)CC1` [Cpd 225, 5-(benzyloxy)-N-(1-(2-(dimethylamino)ethyl)piperidin-4-yl)-2-methylbenzofuran-3-carboxamide] showed a half-maximal inhibitory concentration (IC50) of 1 to 20 µM.
Compound `Cc1oc2ccc(OCc3ccccc3)cc2c1C(=O)N1CCC(N)CC1` [Cpd 073, (4-aminopiperidin-1-yl)(5-(benzyloxy)-2-methylbenzofuran-3-yl)methanone] registered an IC50 above 20 µM.
As to `Cc1oc2ccc(OCc3ccccc3)cc2c1C(=O)N1CCN(C)CC1` [Cpd 072, (5-(benzyloxy)-2-methylbenzofuran-3-yl)(4-methylpiperazin-1-yl)methanone], the IC50 is above 20 µM.
With `Cc1oc2ccc(OCc3ccccc3F)cc2c1C(=O)NC(C)(C)C(N)=O` [Cpd 315, N-(1-amino-2-methyl-1-oxopropan-2-yl)-5-((2-fluorobenzyl)oxy)-2-methylbenzofuran-3-carboxamide] the figure was below 1 µM; with `Cc1oc2ccc(OCc3ccccc3)cc2c1C(=O)NC1CCCNC1=O` (centres unmarked) [Cpd 113, 5-(benzyloxy)-2-methyl-N-(2-oxopiperidin-3-yl)benzofuran-3-carboxamide], below 1 µM; with `Cc1oc2ccc(OCc3ccccc3C(F)(F)F)cc2c1C(=O)NC1CCN(C)CC1` [Cpd 233, 2-methyl-N-(1-methylpiperidin-4-yl)-5-((2-(trifluoromethyl)benzyl)oxy)benzofuran-3-carboxamide], 1 to 20 µM.
With `Cc1oc2ccc(OCc3ccccc3)cc2c1C(=O)NC[C@@H]1CCCO1` [Cpd 090, (S)-5-(benzyloxy)-2-methyl-N-((tetrahydrofuran-2-yl)methyl)benzofuran-3-carboxamide] the figure was below 1 µM.
Next, `Cc1oc2ccc(OCc3ccccc3)cc2c1C(=O)NCC(O)c1cccnc1` (centres unmarked) [Cpd 174, 5-(benzyloxy)-N-(2-hydroxy-2-(pyridin-3-yl)ethyl)-2-methylbenzofuran-3-carboxamide]: 1 to 20 µM; `Cc1oc2ccc(OCc3ccccc3F)cc2c1C(=O)NC1(CO)CC1` [Cpd 325, 5-((2-fluorobenzyl)oxy)-N-(1-(hydroxymethyl)cyclopropyl)-2-methylbenzofuran-3-carboxamide]: below 1 µM; `Cc1oc2ccc(OCc3ccccc3)cc2c1C(=O)NCC1CCCN1` (centres unmarked) [Cpd 078, 5-(benzyloxy)-2-methyl-N-(pyrrolidin-2-ylmethyl)benzofuran-3-carboxamide]: below 1 µM.
For `Cc1oc2ccc(OCc3ccccc3)cc2c1C(=O)NC1CCN(C(=O)OC(C)(C)C)CC1(F)F` (centres unmarked) [Cpd 263, tert-butyl 4-(5-(benzyloxy)-2-methylbenzofuran-3-carboxamido)-3,3-difluoropiperidine-1-carboxylate], the concentration for half-maximal inhibition (IC50) was below 1 µM.
Next, `Cc1oc2ccc(OC3CCc4ccccc43)cc2c1C(=O)O` (centres unmarked) [Cpd 011, 5-((2,3-dihydro-1H-inden-1-yl)oxy)-2-methylbenzofuran-3-carboxylic acid]: 1 to 20 µM; `Cc1oc2ccc(OCc3ccccc3)cc2c1C(=O)NCCc1ccccn1` [Cpd 138, 5-(benzyloxy)-2-methyl-N-(2-(pyridin-2-yl)ethyl)benzofuran-3-carboxamide]: 1 to 20 µM.
With `Cc1oc2ccc(OCc3ccccc3)cc2c1C(=O)NC1CNC(=O)C1` (centres unmarked) [Cpd 068, 5-(benzyloxy)-2-methyl-N-(5-oxopyrrolidin-3-yl)benzofuran-3-carboxamide] the figure was 1 to 20 µM; with `Cc1oc2ccc(OCc3ccccc3)cc2c1C(=O)NC1CN2CCC1CC2` (centres unmarked) [Cpd 142, 5-(benzyloxy)-2-methyl-N-(quinuclidin-3-yl)benzofuran-3-carboxamide], below 1 µM; with `Cc1ccc(COc2ccc3oc(C)c(C(=O)N[C@@H](CO)C(N)=O)c3c2)c(F)c1` [Cpd 342, (S)—N-(1-amino-3-hydroxy-1-oxopropan-2-yl)-5-((2-fluoro-4-methylbenzyl)oxy)-2-methylbenzofuran-3-carboxamide], below 1 µM.

The values above are taken from US20230391739A1, “ARYL DERIVATIVES FOR TREATING TRPM3 MEDIATED DISORDERS” (Katholieke Universiteit Leuven, priority 2020, published 2023).
